# Tested on: Primary human melanocytes
# Experiment: Melanin content in-vitro assay after siRNA transfection
# Format: cell-based
# Set-up: dose or concentration left out as unconfirmed
# Conditions: 72 hours; average of 3 readings
# Method: Ten siRNA double strands of which one strand has the oligonucleotide as given below were synthetically prepared and used to estimate the potential as skin lightening agent using the melanin content in-vitro assay. It is clear to a person skilled in this area that specifying a single strand is sufficient to fully define the double stranded siRNA. The in-vitro assay was carried out as below: Primary human melanocytes were cultured for 24 hrs. Cells were transfected with Mirus Trans IT-TKO transfection reagent and duplex oligomers in culture media. […] After 1 hour at 60° C., absorbance was measured at 400 nm. Melanin content is expressed as % melanin content over scramble treated cells. The experiments were carried out and the data on melanin content as a percentage of the control sample is summarized as an average of 3 readings in table 1. Kojic acid is known to complete action within 72 hours.
smiles,measurement,value
O=c1cc(CO)occ1O [Kojic acid],% control melanin,76%

# From patent publication US9295631B2, “Skin lightening composition” (Conopco, Inc., priority 2012, dated 2016)
